The results in this text go back to patent US20240197891A1, “PHARMACEUTICAL COMPOSITIONS COMPRISING POH DERIVATIVES” (UNIVERSITY OF SOUTHERN CALIFORNIA, priority 2021, published 2024).

Holding throughout (format): in vivo, mouse
One assay concerns UV-B exposed skin. As to the kind of experiment: UV-B induced skin damage in SKH-1 hairless mice. The settings on record: topical post exposure. How it is done: (§1) FIG. 23 illustrates the simulation of sunlight by irradiation with UVB lamps (310 nm). The irradiation was conducted in a phototoxicity testing chamber and fitted with a UV-B lamp providing with a spectral output of approximately 310 nm. The source of UVR was a short-wavelength UV lamp (VWR. Radnor, PA). The peak spectral output of this lamp was approximately 310 nm, with no energy detectable below 260 nm, approximately 0.6% between 260 and 280 nm (UV-C), 72.7% between 280 and 320 nm (UV-B), and 26.7% between 320 and 400 nm (UV-A). Radiation dosage of UV-B per irradiation was set at 54 mJ/cm^2 for the first week, 72 mJ/cm^2 for the second week, 90 mJ/cm^2 for the third week, and 108 mJ/cm^2 for the remaining weeks, as confirmed by a UV monitor. Each irradiation event was 10 minutes long.
POH-LA conjugate, linoleic acid, POH, and the additive combination of linoleic acid and POH were each suspended in glycerol:ethanol (90:10 vol/vol) to a final concentration of 10 nM with 50 μL and applied to each SKH-1 hairless mouse post UV-B exposure for treatment. The sunblock mouse was gently wiped on the exposure area with the sunblock towelette. […] In FIG. 23B, the mice were treated with the glycerol:ethanol vehicle only. In FIG. 23C, the mice were treated with POH. In FIG. 23D, the mice were treated with linoleic acid. In FIG. 23E, the mice were treated with an mixture of linoleic acid and POH. In FIG. 23F, the mice were treated with POH-LA conjugate. In FIG. 23G, the mice were treated with sunblock. The application of POH-LA conjugate to UV-B exposed tissue limits the amount of observable skin damage as compared to the untreated control (B) or the individual components of POH-LA conjugate either alone (POH—C and LA—D), in mixture (E), or with sunblock (G).
as §1, with “FIGS. 24A-D illustrates the” for “FIG. 23 illustrates the”, “UV lamp (VWR, Radnor, PA).” for “UV lamp (VWR. Radnor, PA).”, “second week, and 90 mJ/cm^2” for “second week, 90 mJ/cm^2”, “third week, as confirmed” for “third week, and 108 mJ/cm^2 for the remaining weeks, as confirmed”, “UV monitor.” for “UV monitor. Each irradiation event was 10 minutes long.”
POH-LA conjugate (FIG. 24A), linoleic acid (FIG. 24B), POH (FIG. 24C), and the additive combination of linoleic acid and POH (FIG. 24D) were each suspended in glycerol:ethanol (90:10 vol/vol) to a final concentration of 10 nM with 50 μL applied to each mouse post UV-B exposure for treatment. The application of POH-LA conjugate to UV-B exposed tissue limits the amount of observable skin damage as compared the individual components of POH-LA conjugate either alone or in mixture.
as §1, with “This example” for “FIG. 23”, “nm)” for “nm). The irradiation”, “(VWR,” for “(VWR.”, “monitor.” for “monitor. Each irradiation event was 10 minutes long.”
POH-LA conjugate, linoleic acid, POH, and the additive combination of linoleic acid and POH were each suspended in glycerol:ethanol (90:10 vol/vol) to a final concentration of 10 nM with 50 μL applied to each mouse post UV-B exposure for treatment. […]

Another assay has as its system IL-1β. As to the kind of experiment: Serum IL-1β following UV exposure. How it is done: (§2) SKH-1 hairless mice were treated with 10 mg/kg POH-LA conjugate freshly prepared daily. The POH-LA conjugate was formulated in glycerol:ethanol (90:10) while the control animals received the glycerol:ethanol vehicle only or the commercially available sunblock (Well & Good Sun Protection Wipes SPF 15). Additional test groups were treated with POH formulated in the glycerol:ethanol vehicle or linoleic acid formulated in the glycerol:ethanol vehicle. 50 μL of each formulation was placed on a area 1 cm^2 area that was exposed to the UV light. The mice were treated with their respective formulations after exposure to the UV light. In FIG. 22A, the mouse was treated with sunblock. In FIG. 22B, the mouse was treated with POH. In FIG. 22C, the mouse was treated with linoleic acid. In FIG. 22D, the mouse was treated with POH-LA conjugate. In FIG. […]:ethanol vehicle only. The POH-LA conjugate, POH or linoleic acid solutions were gently spread on the skin surface and allowed to air dry. The sunblock mouse was gently wiped on the exposure area with the sunblock towelette. This exposure and treatment went on for a maximum of 10 weeks. Throughout the experimental period the animals were photographed and weighed. At the end of the experimental period the mice were photographed and euthanized, followed by skin and blood collection. Blood was analyzed for markers of inflammation and DNA recovered from the exposed area of the skin and analyzed for markers of DNA damage.
(§3) Furthermore, blood samples were taken from each mouse 4 hours after the last cutaneous treatment. About 0.5 mL of blood was collected by cardiac puncture […]. Serum was aliquoted in Eppendorf tubes and store at −80° C. as preparation for cytokine analyses. […]
(§4) Mice were treated with 10 mg/kg POH-LA conjugate freshly prepared daily. […] Blood was analyzed for markers of inflammation and DNA recovered from the exposed area of the skin and analyzed for markers of DNA damage.

The next assay concerns TNF-α. As to the kind of experiment: Serum TNF-α following UV exposure. How it is done:
as §2, §3, §4

Setting [1] is: 3 weeks of UV-B exposure and treatment.
[2] abbreviates: 5 weeks of UV-B exposure and treatment.

`C=C(C)[C@@H]1CC=C(COC(=O)CCCCCCC/C=C\C/C=C\CCCCC)CC1` [POH-LA conjugate, Octadeca-9,12-dienoic acid 4-isopropenyl-cyclohex-1-enylmethyl ester]: the observable skin damage result was “displayed no damage” in the assay with UV-B exposed skin (setting [1]) and “appeared the same as the unexposed control mice skin” in the assay with UV-B exposed skin (setting [2]). Further, the “IL-1β serum levels increase” value in the assay on IL-1β came to 6.4 ± 2.5 pg/mL. In the assay with TNF-α, the TNF-α levels amounted to 72.6 ± 22.8 pg/mL.

As to `C=C(C)[C@@H]1CC=C(CO)CC1` [POH, perillyl alcohol], the observable skin damage entry in the assay on UV-B exposed skin (setting [1]) and in the assay on UV-B exposed skin (setting [2]) was “displayed damage” each time. Also, the “IL-1β serum levels increase” value with IL-1β turned out to be 8.5 ± 3.0 pg/mL. This compound displayed a TNF-α levels in the assay with TNF-α of 103.2 ± 18.0 pg/mL.
